# Reference: patent US11241442B2, “Methods of use for TRP channel antagonist-based combination cancer therapies” (President and Fellows of Harvard College, priority 2017, dated 2022)
# Legend:
# HCC1569 spheroids = test: [H2O2]i by Hyper-2 in HCC1569 spheroids; assay type: cell-based; conditions: AP-18, 300 nM A-967079 or 5 mM NAC
# Protocol: (§1) For the measurement of [H2O2]i levels in MCF-10A acini and HCC1569 spheroids, cells were transduced with a lentiviral vector encoding Hyper-2 or Hyper-2 (C199S). The Hyper-2 fluorescence was measured at 37° C. in HEPES-buffered saline (HBS) containing the following (in mM): 150 NaCl, 6 KCl, 1.2 MgSO4, 2 CaCl2, 11.5 glucose, and 25 HEPES (pH adjusted to 7.4 with NaOH). Fluorescence images of the cells were acquired through the Eclipse Ti-E microscope (Nikon) with ORCA-R2 cooled CCD camera (Hamamatsu Photonics) and analyzed with Metafluor image acquisition software (Molecular Devices). The 488:405-nm ratio images were obtained on a pixel-by-pixel basis. 3D images are shown as one section from midstructure. For the measurement of [H2O2]i levels in MCF-10A cells cultured in suspension, cell clumps were dissociated with trypsin and stained with 10 μM peroxy green-1 for 30 min at 37° C. Cells were then subjected to flow cytometric analysis (FACSCalibur; BD Biosciences). ROS levels determined by flow cytometry are reported as mean fluorescence intensity expressed in arbitrary units. Hyper-2 ratio images are representative from two independent experiments and averaged Hyper-2 ratio represents mean±SD from the sum of two independent experiments.
# TRPA1 [1] = target: T1, TRPA1 (Homo sapiens, UniProt O75762); test: Ca2+ responses to carboplatin in HCC1569 cells; assay type: cell-based; conditions: 10 μM AP-18 or 300 nM A-967079
# T1 construct: endogenous in cells; host or cells: HCC1569 breast cancer cells (2D culture or 3D spheroids; shGFP or shTRPA1 transduced)
# Protocol: (§2) For the measurement of [Ca^2+]i levels in cells cultured in 2D or 3D (in Matrigel), cells were stained with 3.5 μM fura-2-AM (Life Technology) in the presence of 2.5 mM probenecid (Sigma) and 0.02% Pluronic F-127 (Sigma) for 45 min at 37° C. The fura-2 fluorescence was measured in HBS solution containing 1.25 mM probenecid at 37° C. Fluorescence images of the cells were acquired through the Eclipse Ti-E microscope with ORCA-R2 cooled CCD camera and analyzed with Metafluor. The 340:380-nm ratio images were obtained on a pixel-by-pixel basis and were converted to Ca^2+ concentrations by in vivo calibration using 5 μM ionomycin as described previously (Nishida et al., Biochem. Biophys. Res. Commun., 262:350-354, 1999). 3D images are shown as one section from midstructure. For the measurement of [Ca^2+]i levels in cells cultured in suspension, cell clumps were dissociated with trypsin and [Ca^2+]i levels were determined by using Fluo-4 NW Calcium Assay Kit (Molecular Probes). Cells were stained with Fluo-4 according to the manufacturer's instructions and subjected to flow cytometric analysis (FACSCalibur) using HBS as sheath fluid. [Ca^2+]i levels determined by flow cytometry are reported as mean fluorescence intensity expressed in arbitrary units. Time courses of [Ca^2+]i rises in 2D culture are representative of three independent experiments and averaged Δ[Ca^2+]i represents mean±SEM from the sum of three independent experiments. Fura-2 ratio images in 3D culture are representative of two independent experiments and averaged [Ca^2+]i in 3D culture represents mean±SEM from the sum of two independent experiments.
# TRPA1 [2] = target: T1, TRPA1; test: [Ca2+]i by fura-2 in HCC1569 spheroids; assay type: cell-based; conditions: AP-18, 300 nM A-967079 or 5 mM NAC
# Protocol: as §2
# HCC1569 cells [3] = test: Soft agar anchorage-independent growth of HCC1569 cells; assay type: cell-based
# Protocol: (§3) Cells were added to the regular MCF-10A or HCC1569 growth media (±AP-18, A-967079, or Trolox) plus 0.4% low-melt agarose (Sigma) and layered onto a bed of growth media plus 0.5% low-melt agarose. Cells were fed every 4 days with growth media (±AP-18, A-967079, or Trolox) plus 0.4% low-melt agarose. At the indicated times, viable colonies were stained with iodonitrotetrazolium chloride (Sigma). Colony number and colony size were determined using ImageJ. Images shown are representative of at least three independent experiments.
# HCC1569 cells [4] = test: Live cell number and cell death under carboplatin in HCC1569 cells; assay type: cell-based; conditions: carboplatin 72 h
# Protocol: For the measurements of live cell number and cell death under treatment with H2O2, diamide, or chemotherapies, cells were cultured on 96-well plates in the presence or absence of these drugs for indicated times and stained with 5 μM bisBenzimide H 33342 trihydrochloride (Hoechst; Sigma) and 5 μM propidium iodide (PI; Sigma) for 1 h at 37° C. Hoechst- and/or PI-positive cells were counted using a laser scanning cytometer, Acumen Cellista (TTPLabTech). Apoptotic cells induced by H2O2 treatment were measured by staining with Annexin V-Alexa Fluor® 488 conjugate (Life Technologies) and PI in Ca^2+-containing solution (10 mM HEPES pH 7.4, 140 mM NaCl; 2.5 mM CaCl2), followed by flow cytometric measurement of fluorescence using a FACSCalibur. Flow cytometry plots are representative of three independent experiments. For the counting of viable cells cultured in suspension, cell clumps were dissociated with trypsin and stained with trypan blue. Viable cells were counted using the Countless Automated Cell Counters (Thermo Fisher Scientific). For the measurement of percentage of dead cells cultured in suspension, cells were cultured on poly HEMA-coated 96-well plates and stained with 5 μM Hoechst and 5 μM PI for 1 h at 37° C. without enzymatic dissociation of cell clumps. Hoechst- and/or PI-positive areas were measured using Acumen Cellista. Apoptotic cells induced by detachment were measured by staining with 5 μM Hoechst and 5 μM of CellEvent™ Caspase-3/7 Green Detection Reagent (Thermo Fisher Scientific) for 1 h at 37° C. without enzymatic dissociation of cell clumps. Hoechst- and/or CellEvent™ Caspase-3/7 Green Detection Reagent-positive areas were measured using Acumen Cellista. For the cell cycle analysis, enzymatically dissociated cells were fixed with ice-cold 70% EtOH for at least 30 min at 4° C., washed three times with PBS at 4° C., resuspended in PBS, treated with 100 μg/ml RNase A (Sigma), and stained with 50 μg/ml PI. The stained samples were subjected to flow cytometric analysis (FACSCalibur).
# MCF-10A acini = test: [H2O2]i by Hyper-2 in MCF-10A 3D acini; assay type: cell-based
# Protocol: as §1
# TRPA1 [5] = test: [Ca2+]i by fura-2 in TRPA1-expressing MCF-10A 3D acini; assay type: cell-based; conditions: inner ECM-deprived region of MCF-10A acini
# Protocol: as §2
# [6] = in vivo; cited from earlier work
# [7] = tested on: EL-12-58 xenograft tumors; test: EL-12-58 xenograft tumor growth in NRG mice; assay type: in vivo
# MCF-10A cells = test: [H2O2]i by peroxy green-1 flow cytometry in ECM-detached MCF-10A cells; assay type: cell-based; conditions: 1 mM NAC; 24 h after plating in non-adherent plates
# Protocol: as §1
# TRPA1 [8] = target: T1, TRPA1; test: [Ca2+]i by Fluo-4 flow cytometry in ECM-detached TRPA1-expressing MCF-10A cells; assay type: cell-based; conditions: 1 mM NAC; 24 h after plating in non-adherent plates
# Protocol: as §2, with “Time courses of [Ca^2+]i rises in 2D culture are representative of three independent experiments and averaged Δ[Ca^2+]i represents mean±SEM from the sum of three independent experiments. Fura-2 ratio images in 3D culture are representative of two independent experiments and averaged [Ca^2+]i in 3D culture represents mean±SEM from the sum of two independent experiments.” left out
# [9] = tested on: MCF-10A cells expressing HER2; test: Soft agar colony formation of MCF-10A cells expressing HER2; assay type: cell-based
# Protocol: as §3
# HCC1569 cells [10] = test: HCC1569 xenograft tumor growth in NRG mice; assay type: in vivo
# Protocol: All animal studies were performed according to protocols approved by the Institutional Animal Care and Use Committee, the Standing Committee on Animals at Harvard University. One million HCC1569 cells stably expressing either TRPA1 or GFP (control) shRNAs were injected into cleared mammary fatpads of 8-week-old female NOD-Rag1^null IL2rg^null (NRG) mice. Tumor volume (mm^3) was monitored by caliper measurements in two perpendicular dimensions (the formula: (d^2×D)/2, where d and D represent the shortest and longest diameters, respectively) at the indicated time points. After tumors reached 3 to 5 mm in diameter, animals were randomized into the following treatment arms: (i) 37.5 mg/kg carboplatin or (ii) its vehicle (H2O) administrated via intraperitoneal injection for HCC1569 cell-transplanted animals; (i) oral administration of 30.0 mg/kg AM-0902, (ii) intraperitoneal administration of 37.5 mg/kg carboplatin, (iii) oral administration of 30.0 mg/kg AM-0902 plus intraperitoneal administration of 37.5 mg/kg carboplatin, or (iv) oral administration of 1% Tween 80/2% HPMC/97% water/methanesulfonic acid pH 2.2 (vehicle for AM-0902) plus intraperitoneal administration of H2O (vehicle for carboplatin) for EL-12-58 cell-transplanted animals. Power calculations are based on the standard deviation and effect size from pilot experiments in HCC1569 cells. […]
# Unstained breast cancer and normal breast tissue arrays were purchased from US Biomax (BR1504a for breast tumors, BN08111 for normal breast tissues). […] Tumor slides stained for TRPA1, blinded and were evaluated by light microscopy and scored by a veterinary pathologist. Images of tissue sections were captured at 4× magnification to create a merged image of the entire section and at 20× magnification for quantification of cleaved caspase-3-positive nuclei, using a Olympus VS120 Slide Scanner. […] Relative apoptosis was quantified by determining the percentage of cleaved caspase-3-positive cells from more than five random fields, per section, from each tumor in the group, and normalized to the shGFP-expressing tumors treated with vehicle. […]
# [11] = Weight loss of EL-12-58 xenograft animals; assay type: in vivo, mice; conditions: mean±SD
# Protocol: All animal studies were performed according to protocols approved by the Institutional Animal Care and Use Committee, the Standing Committee on Animals at Harvard University. One million HCC1569 cells stably expressing either TRPA1 or GFP (control) shRNAs were injected into cleared mammary fatpads of 8-week-old female NOD-Rag1^null IL2rg^null (NRG) mice. Tumor volume (mm^3) was monitored by caliper measurements in two perpendicular dimensions (the formula: (d^2×D)/2, where d and D represent the shortest and longest diameters, respectively) at the indicated time points. After tumors reached 3 to 5 mm in diameter, animals were randomized into the following treatment arms: (i) 37.5 mg/kg carboplatin or (ii) its vehicle (H2O) administrated via intraperitoneal injection for HCC1569 cell-transplanted animals; (i) oral administration of 30.0 mg/kg AM-0902, (ii) intraperitoneal administration of 37.5 mg/kg carboplatin, (iii) oral administration of 30.0 mg/kg AM-0902 plus intraperitoneal administration of 37.5 mg/kg carboplatin, or (iv) oral administration of 1% Tween 80/2% HPMC/97% water/methanesulfonic acid pH 2.2 (vehicle for AM-0902) plus intraperitoneal administration of H2O (vehicle for carboplatin) for EL-12-58 cell-transplanted animals. Power calculations are based on the standard deviation and effect size from pilot experiments in HCC1569 cells. The sample size of seven mice per group provides greater than 95% power to detect a ˜80% difference in change in tumor volume between control and shTRPA1-treated cells with a two-sided type I error rate of 5%. Averaged tumor volume represents mean±SEM.
# HCC1569 cells [12] = conditions: cited from earlier work
# T1 sequence (O75762 whole entry): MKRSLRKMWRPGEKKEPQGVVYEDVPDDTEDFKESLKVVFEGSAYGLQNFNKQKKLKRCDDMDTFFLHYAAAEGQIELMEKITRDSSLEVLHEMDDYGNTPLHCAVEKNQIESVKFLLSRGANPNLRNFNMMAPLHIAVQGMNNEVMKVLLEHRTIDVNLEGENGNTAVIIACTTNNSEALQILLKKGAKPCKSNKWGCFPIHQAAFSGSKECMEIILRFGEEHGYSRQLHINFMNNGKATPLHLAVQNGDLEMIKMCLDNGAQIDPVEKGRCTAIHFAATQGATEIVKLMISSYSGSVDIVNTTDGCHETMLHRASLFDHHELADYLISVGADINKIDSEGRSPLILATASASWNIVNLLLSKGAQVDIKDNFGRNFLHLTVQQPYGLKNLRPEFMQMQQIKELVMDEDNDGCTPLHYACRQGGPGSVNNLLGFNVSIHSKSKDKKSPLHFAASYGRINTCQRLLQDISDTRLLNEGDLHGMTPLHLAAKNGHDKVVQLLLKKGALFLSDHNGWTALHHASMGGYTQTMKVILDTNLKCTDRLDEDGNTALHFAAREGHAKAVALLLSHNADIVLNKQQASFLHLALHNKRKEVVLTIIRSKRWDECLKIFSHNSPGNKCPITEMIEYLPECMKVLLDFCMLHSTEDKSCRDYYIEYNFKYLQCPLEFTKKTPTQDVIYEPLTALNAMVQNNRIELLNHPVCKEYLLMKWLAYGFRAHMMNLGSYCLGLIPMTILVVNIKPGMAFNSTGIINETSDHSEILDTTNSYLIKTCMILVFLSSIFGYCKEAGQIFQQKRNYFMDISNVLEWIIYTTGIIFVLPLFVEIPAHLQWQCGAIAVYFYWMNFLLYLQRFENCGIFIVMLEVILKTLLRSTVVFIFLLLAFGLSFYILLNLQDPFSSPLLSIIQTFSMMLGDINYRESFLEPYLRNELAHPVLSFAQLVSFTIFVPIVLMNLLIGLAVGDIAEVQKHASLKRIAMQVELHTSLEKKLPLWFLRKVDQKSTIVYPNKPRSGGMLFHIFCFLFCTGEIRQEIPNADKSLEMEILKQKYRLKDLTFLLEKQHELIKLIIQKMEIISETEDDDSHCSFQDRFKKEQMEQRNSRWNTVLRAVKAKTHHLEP
smiles,measurement,setting,value
CCC(=N\O)/C(C)=C/c1ccc(F)cc1 [A-967079],increase in [H2O2]i (Hyper-2) in inner region of spheroids,HCC1569 spheroids,unaffected
same,[Ca2+]i rises upon carboplatin treatment,TRPA1 [1],significantly suppressed
same,oscillatory Ca2+ responses upon carboplatin treatment,TRPA1 [1],significantly suppressed
same,elevated [Ca2+]i of inner cells of spheroids,TRPA1 [2],suppressed
same,anchorage-independent growth (number and average size of colonies),HCC1569 cells [3],impaired
same,cell death in response to carboplatin treatment,HCC1569 cells [4],enhanced
same,live cell number in response to carboplatin treatment,HCC1569 cells [4],substantially suppressed
same,increase in [H2O2]i (Hyper-2) in inner ECM-deprived cells,MCF-10A acini,unaffected
same,TRPA1- or E681K-induced [Ca2+]i rises,TRPA1 [5],abolished
Cn1cnc2ncn(Cc3nc(CCc4ccc(Cl)cc4)no3)c(=O)c21 [AM-0902],plasma half-life (T1/2),[6],2.8 h
same,tumor volume / tumor growth,"[7]; AM-0902 30.0 mg/kg oral twice daily, carboplatin 37.5 mg/kg intraperitoneal",reduced
same,tumor mass,"[7]; at end point, AM-0902 30.0 mg/kg oral twice daily, carboplatin 37.5 mg/kg intraperitoneal",reduced
same,live tumor cell area relative to total area (H&E),[7]; compared with vehicle or single carboplatin treatment,reduced
"CC(=O)N[C@@H](CS)C(=O)O [NAC, N-Acetyl-L-cysteine]",increase in [H2O2]i (Hyper-2) in inner region of spheroids,HCC1569 spheroids,abolished
same,elevated [Ca2+]i of inner cells of spheroids,TRPA1 [2],suppressed
same,detachment-induced increase in [H2O2]i,MCF-10A cells,suppressed
same,TRPA1-mediated chemoresistance to carboplatin,HCC1569 cells [4]; 5 mM NAC,largely eliminated
same,detachment-induced TRPA1-dependent increase in [Ca2+]i,TRPA1 [8],abolished
same,increase in [H2O2]i (Hyper-2) in inner ECM-deprived cells,MCF-10A acini,abolished
same,TRPA1- or E681K-induced [Ca2+]i rises,TRPA1 [5],abolished
Cc1c(C)c2c(c(C)c1O)CCC(C)(C(=O)O)O2 (stereo not drawn) [Trolox],colony number and size,[9]; Trolox treatment,strongly increased
same,TRPA1-induced increase in number and average size of colonies,[9]; wild-type or E681K TRPA1 expression,eliminated
N.N.O=C([O-])C1(C(=O)[O-])CCC1.[Pt+2] [carboplatin],tumor response to carboplatin,"HCC1569 cells [10]; tumors expressing shGFP (control), 37.5 mg/kg carboplatin intraperitoneal twice a week",resistant
same,tumor growth after carboplatin treatment,"HCC1569 cells [10]; tumors expressing shTRPA1, 37.5 mg/kg carboplatin intraperitoneal twice a week",significant reduction
same,apoptosis (cleaved caspase-3 staining of tumor sections),"HCC1569 cells [10]; tumors expressing shTRPA1, carboplatin treatment",increased
same,averaged weight loss,[11]; day 26,3.94±1.02%
same,averaged weight loss,[11]; day 29,7.01±2.80%
same,averaged weight loss,[11]; day 32,10.3±3.36%
N.N.[Cl][Pt][Cl] [cisplatin],Resistance rank among 893 cancer cell lines,HCC1569 cells [12],45
same,resistance z-score,HCC1569 cells [12],1.54
